Data on three molecules can be found in ChEMBL document CHEMBL1800008, “Design, synthesis and reactivity of C2-symmetric azobenzene-based amino acid-bis(propargyl sulfones)” (Bioorg Med Chem Lett, 2010).

Calls of active or inactive are those of the source. No cut-off for these calls is given here.

Format in all cases: nucleic-acid assay
Assay [1] concerns Nucleic Acid. The assay can be described thus: Induction of Escherichia coli supercoiled pBR322 DNA cleavage at 0.02 mM after 48 hrs by gel electrophoresis analysis.
The subject of assay [2] is Nucleic Acid. In words: Induction of Escherichia coli supercoiled pBR322 DNA cleavage at 0.02 mM after 48 hrs by densitometric analysis.
In assay [3] the test system is Nucleic Acid. The assay can be described thus: Binding affinity to calf thymus DNA by absorption titration analysis. To be noted: Bos taurus.

On to `O=S(=O)(CC#CCOc1ccccc1/N=N/c1ccccc1OCC#CCS(=O)(=O)c1ccccc1)c1ccccc1`, for which the Activity with Nucleic Acid [1] is 25%.
For `O=C(COc1ccccc1/N=N/c1ccccc1OCC(=O)N[C@@H](Cc1ccccc1)C(=O)OCC#CCS(=O)(=O)c1ccccc1)N[C@@H](Cc1ccccc1)C(=O)OCC#CCS(=O)(=O)c1ccccc1`, in the assay on Nucleic Acid [2], the outcome was Active. The molecule also yielded a K in the assay with Nucleic Acid [3] of 9 ×10⁴ /M. In the assay with Nucleic Acid [1], the Activity turned out to be 10%.
As to `CC(C)[C@H](NC(=O)COc1ccccc1/N=N/c1ccccc1OCC(=O)N[C@H](C(=O)OCC#CCS(=O)(=O)c1ccccc1)C(C)C)C(=O)OCC#CCS(=O)(=O)c1ccccc1`, in the assay on Nucleic Acid [2], the outcome was Active. Moreover, the K with Nucleic Acid [3] is 11 ×10⁴ /M. Besides, the Activity in the assay with Nucleic Acid [1] worked out at 20%.
